From ChEMBL document CHEMBL6109159, “Discovery of a Potent and Selective Protein Arginine Methyltransferase 5 (PRMT5) PROTAC Degrader” (J Med Chem, 2025) come the findings set out here.

Activity calls are given as the source filed them. No cut-off for these calls is given here.

Holding throughout (format): cell-based
The target of test [1] is T1, von Hippel-Lindau disease tumor suppressor/Protein arginine N-methyltransferase 5 (Homo sapiens, UniProt O14744+P40337). Put plainly: PROTAC activity at […]/VHL in human MDA-MB-468 cells assessed as relative protein level at 0.5 uM measured after 24 hrs by Western blot analysis.
T1 sequence (O14744 whole entry, looked up): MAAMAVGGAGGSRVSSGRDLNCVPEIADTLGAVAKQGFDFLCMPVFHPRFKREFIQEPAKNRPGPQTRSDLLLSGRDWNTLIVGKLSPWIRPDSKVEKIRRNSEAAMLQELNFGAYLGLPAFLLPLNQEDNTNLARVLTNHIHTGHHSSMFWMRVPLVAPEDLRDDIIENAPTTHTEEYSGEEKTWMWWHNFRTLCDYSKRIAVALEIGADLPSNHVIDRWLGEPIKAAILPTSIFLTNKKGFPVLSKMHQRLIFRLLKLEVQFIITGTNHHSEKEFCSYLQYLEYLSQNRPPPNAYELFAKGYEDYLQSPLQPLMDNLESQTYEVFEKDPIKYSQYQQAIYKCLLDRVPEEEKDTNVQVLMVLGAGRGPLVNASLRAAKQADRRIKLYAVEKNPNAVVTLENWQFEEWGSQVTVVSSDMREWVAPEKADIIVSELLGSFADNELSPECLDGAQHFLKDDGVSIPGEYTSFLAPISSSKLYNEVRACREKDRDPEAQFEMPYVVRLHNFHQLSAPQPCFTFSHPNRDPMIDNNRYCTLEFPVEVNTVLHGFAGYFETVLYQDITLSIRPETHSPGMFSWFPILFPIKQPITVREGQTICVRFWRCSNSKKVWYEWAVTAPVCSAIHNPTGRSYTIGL
T1 sequence (P40337 whole entry, looked up): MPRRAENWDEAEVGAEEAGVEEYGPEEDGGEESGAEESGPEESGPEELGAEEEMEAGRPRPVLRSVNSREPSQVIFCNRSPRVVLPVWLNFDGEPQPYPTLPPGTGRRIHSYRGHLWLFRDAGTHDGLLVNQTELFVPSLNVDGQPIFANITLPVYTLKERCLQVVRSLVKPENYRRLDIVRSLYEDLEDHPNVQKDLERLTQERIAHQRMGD
The target in test [2] is T1, von Hippel-Lindau disease tumor suppressor/Protein arginine N-methyltransferase 5. Put plainly: PROTAC activity at PRMT5/VHL in human MDA-MB-468 cells assessed as relative protein level at 5 uM measured after 24 hrs by Western blot analysis.
The target of test [3] is T2, von Hippel-Lindau disease tumor suppressor/Methylosome protein WDR77 (Homo sapiens, UniProt Q9BQA1+P40337). Put plainly: PROTAC activity at MEP50/VHL in human MDA-MB-468 cells assessed as relative protein level at 0.5 uM measured after 24 hrs by Western blot analysis.
T2 sequence (P40337 whole entry, looked up): as above
T2 sequence (Q9BQA1 whole entry, looked up): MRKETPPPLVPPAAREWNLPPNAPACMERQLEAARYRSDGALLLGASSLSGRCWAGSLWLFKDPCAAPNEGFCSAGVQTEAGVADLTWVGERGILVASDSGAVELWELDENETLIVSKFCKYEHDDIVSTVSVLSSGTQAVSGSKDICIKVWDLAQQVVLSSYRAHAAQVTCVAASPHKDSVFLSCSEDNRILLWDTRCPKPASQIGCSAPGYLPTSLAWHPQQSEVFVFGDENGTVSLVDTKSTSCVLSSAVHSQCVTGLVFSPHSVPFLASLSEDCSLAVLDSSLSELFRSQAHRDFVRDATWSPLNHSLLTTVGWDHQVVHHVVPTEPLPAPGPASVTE
The target of test [4] is T2, von Hippel-Lindau disease tumor suppressor/Methylosome protein WDR77. Put plainly: PROTAC activity at MEP50/VHL in human MDA-MB-468 cells assessed as relative protein level at 5 uM measured after 24 hrs by Western blot analysis.

Turning to `Cc1ncsc1-c1ccc([C@H](CC(=O)NCCC(=O)N2CCC(Nc3cc(C(=O)NC[C@H](O)CN4CCc5ccccc5C4)ncn3)CC2)NC(=O)[C@@H]2C[C@@H](O)CN2C(=O)[C@@H](NC(=O)C2(F)CC2)C(C)(C)C)cc1`, the result in test [1], in test [2], in test [3] and in test [4] was Active.
As for `Cc1ncsc1-c1ccc([C@H](CC(=O)NCCCCCC(=O)N2CCC(Nc3cc(C(=O)NC[C@H](O)CN4CCc5ccccc5C4)ncn3)CC2)NC(=O)[C@@H]2C[C@@H](O)CN2C(=O)[C@@H](NC(=O)C2(F)CC2)C(C)(C)C)cc1`, the result in test [1], in test [2], in test [3] and in test [4] was Active.
As to `Cc1ncsc1-c1ccc(CNC(=O)[C@@H]2C[C@@H](O)CN2C(=O)[C@@H](NC(=O)C2(F)CC2)C(C)(C)C)c(OCC(=O)NCCOCCOCCOCCOCCOCCC(=O)N2CCC(Nc3cc(C(=O)NC[C@H](O)CN4CCc5ccccc5C4)ncn3)CC2)c1`, the result in test [1], in test [2] and in test [3] was inactive. The outcome in test [4] was Active.
Take `Cc1ncsc1-c1ccc([C@H](CC(=O)NCCCCC(=O)N2CCC(Nc3cc(C(=O)NC[C@H](O)CN4CCc5ccccc5C4)ncn3)CC2)NC(=O)[C@@H]2C[C@@H](O)CN2C(=O)[C@@H](NC(=O)C2(F)CC2)C(C)(C)C)cc1`: the outcome in test [1], in test [2], in test [3] and in test [4] was Active.
Take `Cc1ncsc1-c1ccc(CNC(=O)[C@@H]2C[C@@H](O)CN2C(=O)[C@@H](NC(=O)C2(F)CC2)C(C)(C)C)c(OCC(=O)NCCCC(=O)N2CCC(Nc3cc(C(=O)NC[C@H](O)CN4CCc5ccccc5C4)ncn3)CC2)c1`: the result in test [1], in test [2], in test [3] and in test [4] was Active.
In the case of `Cc1ncsc1-c1ccc(CNC(=O)[C@@H]2C[C@@H](O)CN2C(=O)[C@@H](NC(=O)C2(F)CC2)C(C)(C)C)c(OCC(=O)NCCC(=O)N2CCC(Nc3cc(C(=O)NC[C@H](O)CN4CCc5ccccc5C4)ncn3)CC2)c1`, the result in test [1], in test [2], in test [3] and in test [4] was Active.
Consider `Cc1ncsc1-c1ccc(CNC(=O)[C@@H]2C[C@@H](O)CN2C(=O)[C@@H](NC(=O)C2(F)CC2)C(C)(C)C)c(OCC(=O)NCCOCCC(=O)N2CCC(Nc3cc(C(=O)NC[C@H](O)CN4CCc5ccccc5C4)ncn3)CC2)c1`, for which the result in test [1], in test [2], in test [3] and in test [4] was Active.
Take `Cc1ncsc1-c1ccc(CNC(=O)[C@@H]2C[C@@H](O)CN2C(=O)[C@@H](NC(=O)C2(F)CC2)C(C)(C)C)c(OCC(=O)NCCCCCC(=O)N2CCC(Nc3cc(C(=O)NC[C@H](O)CN4CCc5ccccc5C4)ncn3)CC2)c1`: the result in test [1], in test [2], in test [3] and in test [4] was Active.
Take `Cc1ncsc1-c1ccc([C@H](C)NC(=O)[C@@H]2C[C@@H](O)CN2C(=O)[C@@H](NC(=O)COCCOCCOCCOCCOCC(=O)N2CCC(Nc3cc(C(=O)NC[C@H](O)CN4CCc5ccccc5C4)ncn3)CC2)C(C)(C)C)cc1`: the outcome in test [1], in test [2], in test [3] and in test [4] was Active.
`Cc1ncsc1-c1ccc([C@H](C)NC(=O)[C@@H]2C[C@@H](O)CN2C(=O)[C@@H](NC(=O)COCCOCCOCCOCCOCC(=O)N2CC(Nc3cc(C(=O)NC[C@H](O)CN4CCc5ccccc5C4)ccn3)C2)C(C)(C)C)cc1`: the outcome in test [1], in test [2] and in test [3] was inactive. Moreover, the outcome in test [4] was Active.
For the molecule `Cc1ncsc1-c1ccc([C@H](CC(=O)NCC(=O)N2CCC(Nc3cc(C(=O)NC[C@H](O)CN4CCc5ccccc5C4)ncn3)CC2)NC(=O)[C@@H]2C[C@@H](O)CN2C(=O)[C@@H](NC(=O)C2(F)CC2)C(C)(C)C)cc1`, the result in test [1], in test [2], in test [3] and in test [4] was Active.
For the molecule `Cc1ncsc1-c1ccc([C@H](CC(=O)N2CCC(Nc3cc(C(=O)NC[C@H](O)CN4CCc5ccccc5C4)ncn3)CC2)NC(=O)[C@@H]2C[C@@H](O)CN2C(=O)[C@@H](NC(=O)C2(F)CC2)C(C)(C)C)cc1`, the result in test [1], in test [2], in test [3] and in test [4] was Active.
Take `Cc1ncsc1-c1ccc(CNC(=O)[C@@H]2C[C@@H](O)CN2C(=O)[C@@H](NC(=O)C2(F)CC2)C(C)(C)C)c(OCC(=O)NCCCCC(=O)N2CCC(Nc3cc(C(=O)NC[C@H](O)CN4CCc5ccccc5C4)ncn3)CC2)c1`: the outcome in test [1], in test [2], in test [3] and in test [4] was Active.
With `Cc1ncsc1-c1ccc([C@H](CC(=O)NCCOCCOCCOCCC(=O)N2CCC(Nc3cc(C(=O)NC[C@H](O)CN4CCc5ccccc5C4)ncn3)CC2)NC(=O)[C@@H]2C[C@@H](O)CN2C(=O)[C@@H](NC(=O)C2(F)CC2)C(C)(C)C)cc1`, the outcome in test [1], in test [2], in test [3] and in test [4] was Active.
As for `Cc1ncsc1-c1ccc([C@H](CC(=O)NCCOCCOCCC(=O)N2CCC(Nc3cc(C(=O)NC[C@H](O)CN4CCc5ccccc5C4)ncn3)CC2)NC(=O)[C@@H]2C[C@@H](O)CN2C(=O)[C@@H](NC(=O)C2(F)CC2)C(C)(C)C)cc1`, the result in test [1], in test [2], in test [3] and in test [4] was Active.
On to `Cc1ncsc1-c1ccc(CNC(=O)[C@@H]2C[C@@H](O)CN2C(=O)[C@@H](NC(=O)C2(F)CC2)C(C)(C)C)c(OCC(=O)N2CCC(Nc3cc(C(=O)NC[C@H](O)CN4CCc5ccccc5C4)ncn3)CC2)c1`, for which the outcome in test [1], in test [2], in test [3] and in test [4] was Active.
On to `Cc1ncsc1-c1ccc([C@H](CC(=O)NCCCCCCCC(=O)N2CCC(Nc3cc(C(=O)NC[C@H](O)CN4CCc5ccccc5C4)ncn3)CC2)NC(=O)[C@@H]2C[C@@H](O)CN2C(=O)[C@@H](NC(=O)C2(F)CC2)C(C)(C)C)cc1`, for which the outcome in test [1], in test [2], in test [3] and in test [4] was Active.
Turning to `Cc1ncsc1-c1ccc([C@H](CC(=O)NCCOCCOCCOCCOCCC(=O)N2CCC(Nc3cc(C(=O)NC[C@H](O)CN4CCc5ccccc5C4)ncn3)CC2)NC(=O)[C@@H]2C[C@@H](O)CN2C(=O)[C@@H](NC(=O)C2(F)CC2)C(C)(C)C)cc1`, the result in test [1], in test [2], in test [3] and in test [4] was Active.
On to `Cc1ncsc1-c1ccc(CNC(=O)[C@@H]2C[C@@H](O)CN2C(=O)[C@@H](NC(=O)C2(F)CC2)C(C)(C)C)c(OCC(=O)NCCOCCOCCC(=O)N2CCC(Nc3cc(C(=O)NC[C@H](O)CN4CCc5ccccc5C4)ncn3)CC2)c1`, for which the result in test [1], in test [2], in test [3] and in test [4] was inactive.
`Cc1ncsc1-c1ccc(CNC(=O)[C@@H]2C[C@@H](O)CN2C(=O)[C@@H](NC(=O)C2(F)CC2)C(C)(C)C)c(OCC(=O)NCC(=O)N2CCC(Nc3cc(C(=O)NC[C@H](O)CN4CCc5ccccc5C4)ncn3)CC2)c1`: the outcome in test [1], in test [2], in test [3] and in test [4] was Active.
On to `Cc1ncsc1-c1ccc(CNC(=O)[C@@H]2C[C@@H](O)CN2C(=O)[C@@H](NC(=O)C2(F)CC2)C(C)(C)C)c(OCC(=O)NCCOCCOCCOCCC(=O)N2CCC(Nc3cc(C(=O)NC[C@H](O)CN4CCc5ccccc5C4)ncn3)CC2)c1`, for which the outcome in test [1], in test [2], in test [3] and in test [4] was Active.
As for `Cc1ncsc1-c1ccc([C@H](C)NC(=O)[C@@H]2C[C@@H](O)CN2C(=O)[C@@H](NC(=O)CCOCCOCCOCCOCCC(=O)N2CCC(Nc3cc(C(=O)NC[C@H](O)CN4CCc5ccccc5C4)ncn3)CC2)C(C)(C)C)cc1`, the outcome in test [1], in test [2], in test [3] and in test [4] was Active.
In the case of `Cc1ncsc1-c1ccc([C@H](C)NC(=O)[C@@H]2C[C@@H](O)CN2C(=O)[C@@H](NC(=O)CCOCCOCCOCCOCCOCCC(=O)N2CCC(Nc3cc(C(=O)NC[C@H](O)CN4CCc5ccccc5C4)ncn3)CC2)C(C)(C)C)cc1`, the outcome in test [1], in test [2], in test [3] and in test [4] was Active.
